Biological target: T1, His6 tagged human recombinant FABP4 (Homo sapiens, UniProt P15090)
T1 construct: purchased Cayman Chemicals 10009549
Test: FABP4 TR-FRET assay: displacement of BODIPY FL C12 fatty acid
Conditions: triplicates, inhibition of BODIPY FL C12 binding
Text: Activity of compounds with FABP4 was profiled using a Terbium (Tb) based time resolved fluorescence energy transfer (TR-FRET) assay. The assay measures the compound mediated displacement of the fluorescent fatty acid BODIPY FL C12 (Thermo Fisher; catalog number D3822) from His6 tagged human recombinant FABP4 (His6-FABP4; Cayman Chemicals, catalog number 10009549) via recording the energy transfer from TB donor molecule on anti-His6-tag antibody to acceptor BODIPY moiety. Briefly, compounds were prepared at a concentration of 0.362 mM and 0.0362 mM, and BODIPY FL C12 was prepared at 4.2 μM, in DMSO. 1.2 μL of each compound or DMSO (vehicle control) and 1.2 μL of BODIPY FL C12 were added into the wells of a 384-well black polypropylene plate. His6-FABP4 and Tb anti-His6 antibody were prepared in the assay buffer (25 mM Tris/HCl, pH 7.4, 0.4 mg/ml y-globulins, 0.010% NP-40, 1 mM DTT) at a concentration of 83 nM and 49.6 nM, respectively. The protein and antibody solutions were then mixed at a ratio of 34:7 (v/v) and incubated on ice for 30 minutes. The assay was initiated by adding 41 μL of the resulting protein/antibody solution into the wells containing the compounds and BODIPY FL C12. The plate was centrifuged and incubated at room temperature for 10 min. The TR-FRET signals were recorded using an EnVision Multilabel plate reader (PerkinElmer; TB excitation 320 nm, BODIPY FL C12 emission 520 nm; TB emission 615 nm). Relative fluorescence ratio (520 nm*10,000/615 nm) were used to calculate the compound mediated inhibition of BODIPY C12 FL fatty acid binding to FABP4. […] Glucose consumption and FABP4 inhibition is shown below in Table 3 below.

T1 sequence (P15090 whole entry): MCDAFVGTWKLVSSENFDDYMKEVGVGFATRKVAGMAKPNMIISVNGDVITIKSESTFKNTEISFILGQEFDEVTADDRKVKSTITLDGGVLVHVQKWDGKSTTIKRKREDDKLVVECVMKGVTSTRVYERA

SMILES	inhibition at 1 µM (1 μM compound)	inhibition at 10 µM (10 μM compound)	FABP4 inhibition (%) at 1 μM Mean (1 μM compound)	FABP4 inhibition (%) at 10 μM Mean (10 μM compound)
NC(=O)c1cccc(Cn2c3c(c4cccc(C(=O)O)c42)CCCC(CCc2ccccc2)C3)c1 (centres unmarked) [5-[(3-carbamoylphenyl)methyl]-7-(2-phenylethyl)-5H,6H,7H,8H,9H,10H-cyclohepta[b]indole-4-carboxylic acid]	99.1%	98%		
CCC1CCCc2c(n(Cc3cccc(C(N)=O)c3)c3c(C(=O)O)cccc23)C1 (centres unmarked) [5-[(3-carbamoylphenyl)methyl]-7-ethyl-5H,6H,7H,8H,9H,10H-cyclohepta[b]indole-4-carboxylic acid]	91.8%	100%		
CCCCCCC1CCCc2c(n(Cc3cccc(C(N)=O)c3)c3c(C(=O)O)cccc23)C1 (centres unmarked) [5-[(3-carbamoylphenyl)methyl]-7-hexyl-5H,6H,7H,8H,9H,10H-cyclohepta[b]indole-4-carboxylic acid]	102%	94.2%		
CCCCCCCCC1CCCc2c(n(Cc3cccc(C(N)=O)c3)c3c(C(=O)O)cccc23)C1 (centres unmarked) [5-[(3-carbamoylphenyl)methyl]-7-octyl-5H,6H,7H,8H,9H,10H-cyclohepta[b]indole-4-carboxylic acid]	98.1%	93.6%		
CCCCCC1CCCc2c(n(Cc3cccc(C(N)=O)c3)c3c(C(=O)O)cccc23)C1 (centres unmarked) [5-[(3-carbamoylphenyl)methyl]-7-pentyl-5H,6H,7H,8H,9H,10H-cyclohepta[b]indole-4-carboxylic acid]	91.2%	93.3%		
CCCC1CCCc2c(n(Cc3cccc(C(N)=O)c3)c3c(C(=O)O)cccc23)C1 (centres unmarked) [5-[(3-carbamoylphenyl)methyl]-7-propyl-5H,6H,7H,8H,9H,10H-cyclohepta[b]indole-4-carboxylic acid]	85.1%	91.4%		
CCC1CCCCc2c1c1cccc(C(=O)O)c1n2Cc1cccc(C(N)=O)c1 (centres unmarked) [5-[(3-carbamoylphenyl)methyl]-10-ethyl-5H,6H,7H,8H,9H,10H-cyclohepta[b]indole-4-carboxylic acid]	86.4%	98%		
CCCCCC1CCCCc2c1c1cccc(C(=O)O)c1n2Cc1cccc(C(N)=O)c1 (centres unmarked) [5-[(3-carbamoylphenyl)methyl]-10-pentyl-5H,6H,7H,8H,9H,10H-cyclohepta[b]indole-4-carboxylic acid]	81.1%	96.1%		
CCCC1CCCCc2c1c1cccc(C(=O)O)c1n2Cc1cccc(C(N)=O)c1 (centres unmarked) [5-[(3-carbamoylphenyl)methyl]-10-propyl-5H,6H,7H,8H,9H,10H-cyclohepta[b]indole-4-carboxylic acid]	38.8%	91.6%		
CCCCCCC1CCCc2c(n(Cc3cccc(C(=O)O)c3)c3c(C(=O)O)cccc23)C1 (centres unmarked) [5-[(3-carboxyphenyl)methyl]-7-hexyl-5H,6H,7H,8H,9H,10H-cyclohepta[b]indole-4-carboxylic acid]	89.8%	89.2%		
CCCCCCC1CCCc2c(n(Cc3cccc(Cl)c3)c3c(C(=O)O)cccc23)C1 (centres unmarked) [5-[(3-chlorophenyl)methyl]-7-hexyl-5H,6H,7H,8H,9H,10H-cyclohepta[b]indole-4-carboxylic acid]	103%	45.9%		
CCCCCCC1CCCc2c(n(Cc3cccc(C#N)c3F)c3c(C(=O)O)cccc23)C1 (centres unmarked) [5-[(3-cyano-2-fluorophenyl)methyl]-7-hexyl-5H,6H,7H,8H,9H,10H-cyclohepta[b]indole-4-carboxylic acid]	87.9%	95.5%		
CCCCCCC1CCCc2c(n(Cc3cccc(C#N)c3)c3c(C(=O)O)cc(F)cc23)C1 (centres unmarked) [5-[(3-cyanophenyl)methyl]-2-fluoro-7-hexyl-5H,6H,7H,8H,9H,10H-cyclohepta[b]indole-4-carboxylic acid]	87.3%	93.9%		
N#Cc1cccc(Cn2c3c(c4cccc(C(=O)O)c42)CCCC(CCc2ccccc2)C3)c1 (centres unmarked) [5-[(3-cyanophenyl)methyl]-7-(2-phenylethyl)-5H,6H,7H,8H,9H,10H-cyclohepta[b]indole-4-carboxylic acid]	93.1%	94.5%		
CCC1CCCc2c(n(Cc3cccc(C#N)c3)c3c(C(=O)O)cccc23)C1 (centres unmarked) [5-[(3-cyanophenyl)methyl]-7-ethyl-5H,6H,7H,8H,9H,10H-cyclohepta[b]indole-4-carboxylic acid]	90%	97%		
CCCCCCC1CCCc2c(n(Cc3cccc(C#N)c3)c3c(C(=O)O)cccc23)C1 (centres unmarked) [5-[(3-cyanophenyl)methyl]-7-hexyl-5H,6H,7H,8H,9H,10H-cyclohepta[b]indole-4-carboxylic acid]	94.1%	88.7%		
CCCCCCCCC1CCCc2c(n(Cc3cccc(C#N)c3)c3c(C(=O)O)cccc23)C1 (centres unmarked) [5-[(3-cyanophenyl)methyl]-7-octyl-5H,6H,7H,8H,9H,10H-cyclohepta[b]indole-4-carboxylic acid]	94.5%	93%		
CCCCCC1CCCc2c(n(Cc3cccc(C#N)c3)c3c(C(=O)O)cccc23)C1 (centres unmarked) [5-[(3-cyanophenyl)methyl]-7-pentyl-5H,6H,7H,8H,9H,10H-cyclohepta[b]indole-4-carboxylic acid]	100%	96.1%		
CCC1CCCCc2c1c1cccc(C(=O)O)c1n2Cc1cccc(C#N)c1 (centres unmarked) [5-[(3-cyanophenyl)methyl]-10-ethyl-5H,6H,7H,8H,9H,10H-cyclohepta[b]indole-4-carboxylic acid]	92.4%	98.2%		
CCCCCC1CCCCc2c1c1cccc(C(=O)O)c1n2Cc1cccc(C#N)c1 (centres unmarked) [5-[(3-cyanophenyl)methyl]-10-pentyl-5H,6H,7H,8H,9H,10H-cyclohepta[b]indole-4-carboxylic acid]	44.3%	77%		
CCCC1CCCCc2c1c1cccc(C(=O)O)c1n2Cc1cccc(C#N)c1 (centres unmarked) [5-[(3-cyanophenyl)methyl]-10-propyl-5H,6H,7H,8H,9H,10H-cyclohepta[b]indole-4-carboxylic acid]	73.3%	97.5%		
CCCCCCC1CCCc2c(n(Cc3cccc(F)c3)c3c(C(=O)O)cccc23)C1 (centres unmarked) [5-[(3-fluorophenyl)methyl]-7-hexyl-5H,6H,7H,8H,9H,10H-cyclohepta[b]indole-4-carboxylic acid]	93.6%	92.9%		
CCCCCCC1CCCc2c(n(Cc3ccc(C(N)=O)cc3)c3c(C(=O)O)cccc23)C1 (centres unmarked) [5-[(4-carbamoylphenyl)methyl]-7-hexyl-5H,6H,7H,8H,9H,10H-cyclohepta[b]indole-4-carboxylic acid]	77.7%	83.8%		
CCCCCCC1CCCc2c(n(Cc3ccc(C#N)cc3)c3c(C(=O)O)cccc23)C1 (centres unmarked) [5-[(4-cyanophenyl)methyl]-7-hexyl-5H,6H,7H,8H,9H,10H-cyclohepta[b]indole-4-carboxylic acid]	81.3%	84.7%		
CCCCCCC1CCCc2c(n(Cc3ccc(F)cc3)c3c(C(=O)O)cccc23)C1 (centres unmarked) [5-[(4-fluorophenyl)methyl]-7-hexyl-5H,6H,7H,8H,9H,10H-cyclohepta[b]indole-4-carboxylic acid]	74.4%	77.6%		
CCCCCCC1CCCc2c(n(Cc3ccc(C#N)o3)c3c(C(=O)O)cccc23)C1 (centres unmarked) [5-[(5-cyanofuran-2-yl)methyl]-7-hexyl-5H,6H,7H,8H,9H,10H-cyclohepta[b]indole-4-carboxylic acid]	81.3%	90%		
CCCCCCC1CCCc2c(n(Cc3cncc(C#N)c3)c3c(C(=O)O)cccc23)C1 (centres unmarked) [5-[(5-cyanopyridin-3-yl)methyl]-7-hexyl-5H,6H,7H,8H,9H,10H-cyclohepta[b]indole-4-carboxylic acid]	90.5%	91.8%		
CCCCCCC1CCCc2c(n(Cc3ccc(C#N)s3)c3c(C(=O)O)cccc23)C1 (centres unmarked) [5-[(5-cyanothiophen-2-yl)methyl]-7-hexyl-5H,6H,7H,8H,9H,10H-cyclohepta[b]indole-4-carboxylic acid]	86.6%	87.3%	83.31%	89.42%
CCCCCCC1CCCc2c(n(Cc3cccc(C(N)=O)n3)c3c(C(=O)O)cccc23)C1 (centres unmarked) [5-[(6-carbamoylpyridin-2-yl)methyl]-7-hexyl-5H,6H,7H,8H,9H,10H-cyclohepta[b]indole-4-carboxylic acid]	94%	95.2%		
CCCCCCC1CCCc2c(n(Cc3cccc(C#N)n3)c3c(C(=O)O)cccc23)C1 (centres unmarked) [5-[(6-cyanopyridin-2-yl)methyl]-7-hexyl-5H,6H,7H,8H,9H,10H-cyclohepta[b]indole-4-carboxylic acid]	93.5%	88.1%		

— patent US12084419B2, “Cell metabolism modulating compounds and uses thereof” (CRESCENTA BIOSCIENCES, priority 2020, dated 2024)
